Reference: ChEMBL document CHEMBL1201862, “PubChem BioAssay data set” (2004)
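Five compound concentrations were applied to cells in 96-well plates for 48 hours; endpoints were derived by simple linear interpolation of the resulting dose-response curve. GI50 is the concentration that inhibits growth by half.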 Calls of active or inactive are those of the source. No stated cut-off is given here; in the data, active = GI50 up to about 1.1 µM and inactive = higher.

Assays:
Assay in all cases: NCI-60 cell line screen, 48 h
786-0 = tested on: 786-0
A549 = tested on: A549
CCRF-CEM = tested on: CCRF-CEM
DU-145 = tested on: DU-145
HCC 2998 = tested on: HCC 2998
HCT-15 = tested on: HCT-15
MCF7 = tested on: MCF7
MDA-MB-231 = tested on: MDA-MB-231
MDA-MB-435 = tested on: MDA-MB-435
OVCAR-3 = tested on: OVCAR-3
OVCAR-4 = tested on: OVCAR-4
SF-268 = tested on: SF-268
SF-295 = tested on: SF-295
SK-MEL-2 = tested on: SK-MEL-2
SK-MEL-5 = tested on: SK-MEL-5
U-251 = tested on: U-251
UACC-257 = tested on: UACC-257
UACC-62 = tested on: UACC-62
NCI-H226 = tested on: NCI-H226
A498 = tested on: A498

| SMILES | GI50 (786-0) | GI50 (A549) | GI50 (CCRF-CEM) | GI50 (DU-145) | GI50 (HCC 2998) | GI50 (HCT-15) [µM] | GI50 (MCF7) | GI50 (MDA-MB-231) | GI50 (MDA-MB-435) | GI50 (OVCAR-3) | GI50 (OVCAR-4) | GI50 (SF-268) | GI50 (SF-295) | GI50 (SK-MEL-2) | GI50 (SK-MEL-5) | GI50 (U-251) | GI50 (UACC-257) | GI50 (UACC-62) | GI50 (NCI-H226) | GI50 (A498) |
| --- | --- | --- | --- | --- | --- | --- | --- | --- | --- | --- | --- | --- | --- | --- | --- | --- | --- | --- | --- | --- |
| c1cc(CSP234N5CCN2CCN3CCN4CC5)ccc1CSP123N4CCN1CCN2CCN3CC4 | > 100 µM (inactive) | > 100 µM (inactive) | 27.4 µM (inactive) | > 100 µM (inactive) | > 100 µM (inactive) | > 100 | > 100 µM (inactive) | 62.7 µM (inactive) | 97.3 µM (inactive) | 76.4 µM (inactive) | > 100 µM (inactive) | > 100 µM (inactive) | > 100 µM (inactive) | > 100 µM (inactive) | > 100 µM (inactive) | 68.5 µM (inactive) | > 100 µM (inactive) | > 100 µM (inactive) |  |  |
| Cc1ccc(C2C(C(=O)C(C)(C)C)N2S(=O)(=O)c2ccc(C)cc2)cc1 (stereo not given) |  | 40.3 µM (inactive) | 22.6 µM (inactive) | 18.7 µM (inactive) | 19.1 µM (inactive) | 22.3 | 23.8 µM (inactive) | 19.8 µM (inactive) | 20.9 µM (inactive) | 26.5 µM (inactive) | 30.1 µM (inactive) | 30.5 µM (inactive) | 41.6 µM (inactive) | 46.6 µM (inactive) |  | 20.2 µM (inactive) |  | 15.8 µM (inactive) | 21.3 µM (inactive) |  |
| O=P1(c2ccccc2)C2=CCC=CC2C(c2ccccc2)N1Cc1ccccc1 (stereo not given) | 15.5 µM (inactive) | 14.7 µM (inactive) | 15.5 µM (inactive) | 17.5 µM (inactive) |  | 14.5 | 11.2 µM (inactive) | 15.9 µM (inactive) | 15.6 µM (inactive) |  |  | 14.7 µM (inactive) | 13.5 µM (inactive) | 15.5 µM (inactive) | 15.2 µM (inactive) | 14.3 µM (inactive) | 20.1 µM (inactive) | 8.63 µM (inactive) |  |  |
| CC1(C)CC(=O)c2c(nc3c(ccc4ccccc43)c2-c2ccc(NC(=O)CCCCCCCCC(=O)Nc3ccc(-c4c5c(nc6c4ccc4ccccc46)CC(C)(C)CC5=O)cc3)cc2)C1 | > 100 µM (inactive) | > 100 µM (inactive) | > 100 µM (inactive) | > 100 µM (inactive) |  |  | > 100 µM (inactive) | > 100 µM (inactive) | > 100 µM (inactive) | > 100 µM (inactive) |  | > 100 µM (inactive) | > 100 µM (inactive) | > 100 µM (inactive) | > 100 µM (inactive) | > 100 µM (inactive) | > 100 µM (inactive) |  | > 100 µM (inactive) |  |
| Cc1ccc(SC[C@@]2(C(F)F)NC(=O)NC2=O)cc1 | > 100 µM (inactive) | > 100 µM (inactive) | > 100 µM (inactive) | > 100 µM (inactive) | > 100 µM (inactive) | > 100 |  | > 100 µM (inactive) | > 100 µM (inactive) | > 100 µM (inactive) | > 100 µM (inactive) | > 100 µM (inactive) | > 100 µM (inactive) | > 100 µM (inactive) | > 100 µM (inactive) | > 100 µM (inactive) | > 100 µM (inactive) | > 100 µM (inactive) | > 100 µM (inactive) | > 100 µM (inactive) |
| O=C1N/C(=N/N=C\c2ccccc2)N/C1=C/c1ccc(Cl)cc1 | 29.8 µM (inactive) | 25.6 µM (inactive) |  | 28.6 µM (inactive) | 15.9 µM (inactive) | 15.3 | 24.7 µM (inactive) | 29.3 µM (inactive) | 33.3 µM (inactive) | 17.4 µM (inactive) | 12.8 µM (inactive) | 22.2 µM (inactive) | 25.7 µM (inactive) | 26.5 µM (inactive) | 19.3 µM (inactive) | 22.8 µM (inactive) | 43 µM (inactive) |  | 15.5 µM (inactive) |  |
